Assay results: US8377943B2, “2,4-diaminopyrimidine derivates as PTK2-inhibitors for the treatment of abnormal cell growth” (Boehringer Ingelheim International GmbH, priority 2008, dated 2013)

How the values were obtained:
[1] = target: T1, PTK2-phosphorylation at tyrosine 397 (pY397) (Homo sapiens, UniProt Q05397); test: Phospho-PTK2 (pY397) Assay in PC-3 cells; assay type: cell-based; conditions: PC-3 prostate carcinoma cells, 2 h incubation; read-out: PC3pPTK2 Y397 EC50
T1 construct: endogenous in cells; host or cells: PC-3 (ATCC CRL-1435)
T1 sequence (Q05397 whole entry): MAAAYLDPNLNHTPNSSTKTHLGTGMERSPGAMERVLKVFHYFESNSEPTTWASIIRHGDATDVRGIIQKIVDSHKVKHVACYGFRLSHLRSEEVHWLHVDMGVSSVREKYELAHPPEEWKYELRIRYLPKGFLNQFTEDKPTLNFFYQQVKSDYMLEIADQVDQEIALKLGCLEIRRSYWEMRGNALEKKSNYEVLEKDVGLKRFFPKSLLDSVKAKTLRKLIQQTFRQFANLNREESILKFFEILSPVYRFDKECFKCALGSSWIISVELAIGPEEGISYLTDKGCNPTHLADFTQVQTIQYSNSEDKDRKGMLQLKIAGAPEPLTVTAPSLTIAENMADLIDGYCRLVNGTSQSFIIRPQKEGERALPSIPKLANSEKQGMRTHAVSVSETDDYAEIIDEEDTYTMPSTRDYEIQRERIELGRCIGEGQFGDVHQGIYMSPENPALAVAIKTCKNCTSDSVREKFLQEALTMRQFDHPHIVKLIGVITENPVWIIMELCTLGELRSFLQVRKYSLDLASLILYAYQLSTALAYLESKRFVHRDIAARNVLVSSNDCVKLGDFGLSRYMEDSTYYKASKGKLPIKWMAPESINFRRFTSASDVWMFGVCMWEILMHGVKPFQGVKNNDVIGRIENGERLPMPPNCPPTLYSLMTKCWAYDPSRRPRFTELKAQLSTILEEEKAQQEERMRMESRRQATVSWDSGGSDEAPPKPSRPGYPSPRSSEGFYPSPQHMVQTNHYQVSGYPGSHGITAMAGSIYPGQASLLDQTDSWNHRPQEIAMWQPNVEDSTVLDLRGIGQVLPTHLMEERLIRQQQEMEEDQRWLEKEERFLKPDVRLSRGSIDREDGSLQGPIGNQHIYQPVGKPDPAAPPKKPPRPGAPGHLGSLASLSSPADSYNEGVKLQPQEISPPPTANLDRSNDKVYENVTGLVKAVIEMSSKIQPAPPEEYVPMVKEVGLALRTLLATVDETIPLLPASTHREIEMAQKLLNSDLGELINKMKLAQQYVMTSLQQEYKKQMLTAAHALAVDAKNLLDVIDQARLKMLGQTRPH
How it was run: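 PC-3 cells (2×10^4/well, F12K + 10% FCS) exposed to compound (about 0.8 nM–50 μM, 1% DMSO final) for 2 h at 37 °C. Then formaldehyde-fixed and immunostained with anti-pY397 PTK2 (total PTK2 control) and an HRP secondary. EC50 from sigmoidal fit with variable Hill slope.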

[2] = target: T2, PTK2 (Homo sapiens, UniProt Q05397); test: PTK2 Enzyme Test (DELFIA assay, poly-Glu-Tyr substrate); assay type: biochemical; conditions: active PTK2 enzyme, 50 μM ATP in ATP Mix, 1 h pre-incubation
T2 construct: purchased Invitrogen PV3832
T2 sequence (Q05397 whole entry): as above
How it was run: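 Active PTK2 (0.01 μg/well) pre-incubated 1 h at RT with compound, then reacted 1 h with 50 μM ATP (in ATP mix) and poly(Glu,Tyr) 4:1 substrate, 2% DMSO final, pH 7.5. Biotinylated product captured on streptavidin, detected by Eu-PY20 time-resolved fluorescence; IC50 by sigmoidal fit, variable Hill slope.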

| SMILES | EC50 [1] | IC50 [2] |
| --- | --- | --- |
| COc1cc(N2CCN(CC(=O)N(C)C)CC2)ccc1Nc1ncc(C(F)(F)F)c(NCc2ccc(F)cc2N(C)S(C)(=O)=O)n1 [Example 82] | 1 nM | 2 nM |
| COc1cc(C(=O)NC2CCNCC2)ccc1Nc1ncc(C(F)(F)F)c(NCc2ccc(C)cc2N(C)S(C)(=O)=O)n1 [Example 83] | 1 nM | 2 nM |
| COc1cc(C(=O)NC2CCC(N3CCOCC3)CC2)c(C)cc1Nc1ncc(C(F)(F)F)c(NCc2ccc(C)cc2N(C)S(C)(=O)=O)n1 (centres unmarked) [Example 84] | 1 nM | 3 nM |
| COc1cc(C(=O)N[C@@H]2CCCN(CC3CC3)C2)ccc1Nc1ncc(C(F)(F)F)c(NCc2ccc(C)cc2N(C)S(C)(=O)=O)n1 [Example 85] | 1 nM | 3 nM |
| COc1cc(C(=O)N[C@@H]2CCCN(C3CCC3)C2)ccc1Nc1ncc(C(F)(F)F)c(NCc2ccc(C)cc2N(C)S(C)(=O)=O)n1 [Example 86] | 1 nM | 3 nM |
| COc1ccc(CNc2nc(Nc3ccc(NC(C)=O)c(OC)c3)ncc2C(F)(F)F)c(N(C)S(C)(=O)=O)c1 [Example 87] | 1 nM | 1 nM |
| COc1cc(CNCCN(C)C)ccc1Nc1ncc(C(F)(F)F)c(NCc2ccc(C)cc2N(C)S(C)(=O)=O)n1 [Example 88] | 1 nM | 4 nM |
| COc1cc(CNC(C)C)ccc1Nc1ncc(C(F)(F)F)c(NCc2ccc(C)cc2N(C)S(C)(=O)=O)n1 [Example 89] | 1 nM | 2 nM |
| COc1cc(C(=O)NC2CCN(C)CC2)c(F)cc1Nc1ncc(C(F)(F)F)c(NCc2ccc(Cl)cc2N(C)S(C)(=O)=O)n1 [Example 90] | 2 nM | 1 nM |
| Cc1ccc(CNc2nc(Nc3ccc(C(=O)N[C@H]4CC[C@H](N5CCN(CC6CC6)CC5)CC4)cc3F)ncc2C(F)(F)F)c(N(C)S(C)(=O)=O)c1 [Example 91] | 2 nM | 3 nM |
| Cc1ccc(CNc2nc(Nc3ccc(C(=O)N[C@H]4CC[C@H](N5CCOCC5)CC4)cc3F)ncc2C(F)(F)F)c(N(C)S(C)(=O)=O)c1 [Example 92] | 2 nM | 1 nM |
| COc1cc(C(=O)NC2CCN(C3COC3)CC2)c(F)cc1Nc1ncc(C(F)(F)F)c(NCc2ccc(C)cc2N(C)S(C)(=O)=O)n1 [Example 93] | 2 nM | 5 nM |
| COc1cc(C(=O)NC2CCN(C3CCOCC3)CC2)ccc1Nc1ncc(C(F)(F)F)c(NCc2ccc(Cl)cc2N(C)S(C)(=O)=O)n1 [Example 94] | 2 nM | 2 nM |
| COc1cc(C(=O)N[C@H]2CC[C@H](N3CCN(CC4CC4)CC3)CC2)ccc1Nc1ncc(C(F)(F)F)c(NCc2ccc(C)cc2N(C)S(C)(=O)=O)n1 [Example 95] | 2 nM | 3 nM |
| COc1cc(C(=O)NC2CC(N3CCN(CC4CC4)CC3)C2)ccc1Nc1ncc(C(F)(F)F)c(NCc2ccc(C)cc2N(C)S(C)(=O)=O)n1 (centres unmarked) [Example 97] | 2 nM | 3 nM |
| COc1cc(N2CCN(C3COC3)CC2)ccc1Nc1ncc(C(F)(F)F)c(NCc2ccc(F)cc2N(C)S(C)(=O)=O)n1 [Example 98] | 2 nM | 3 nM |
| COc1cc(N2CCN(C)CC2)ccc1Nc1ncc(C(F)(F)F)c(NCc2ccc(F)cc2N(C)S(C)(=O)=O)n1 [Example 99] | 2 nM | 1 nM |
| COc1cc(C(=O)NC2CCN(C)CC2)c(C)cc1Nc1ncc(C(F)(F)F)c(NCc2ccc(C)cc2N(C)S(C)(=O)=O)n1 [Example 100] | 2 nM | 1 nM |
| CCc1cc(C(=O)NC2CCN(CC)CC2)ccc1Nc1ncc(C(F)(F)F)c(NCc2ccc(C)cc2N(C)S(C)(=O)=O)n1 [Example 101] | 2 nM | 2 nM |
| COc1cc(C(=O)N[C@@H]2CCCN(C)C2)ccc1Nc1ncc(C(F)(F)F)c(NCc2ccc(C)cc2N(C)S(C)(=O)=O)n1 [Example 102] | 2 nM | 2 nM |
| COc1cc(Nc2ncc(C(F)(F)F)c(NCc3ccc(C)cc3N(C)S(C)(=O)=O)n2)ccc1NC(C)=O [Example 103] | 2 nM | 0.8 nM |
| CC(=O)Nc1ccc(Nc2ncc(C(F)(F)F)c(NCc3ccc(C)cc3N(C)S(C)(=O)=O)n2)cc1Cl [Example 104] | 2 nM | 2 nM |
| COc1ccc(CNc2nc(Nc3ccc(NC(C)=O)c(Cl)c3)ncc2C(F)(F)F)c(N(C)S(C)(=O)=O)c1 [Example 105] | 2 nM | 2 nM |
| COc1cc(C(=O)N[C@@H]2CCN(C)C[C@@H]2F)ccc1Nc1ncc(C(F)(F)F)c(NCc2ccc(C)cc2N(C)S(C)(=O)=O)n1 [Example 106] | 2 nM | 4 nM |
| COc1cc(C(=O)NC2CCC(N3CCN(CC4CC4)CC3)CC2)c(C)cc1Nc1ncc(C(F)(F)F)c(NCc2ccc(C)cc2N(C)S(C)(=O)=O)n1 (centres unmarked) [Example 107] | 2 nM | 4 nM |
| COc1cc(C(=O)N(C)C2CCN(C)CC2)ccc1Nc1ncc(C(F)(F)F)c(NCc2ccc(C)cc2N(C)S(C)(=O)=O)n1 [Example 108] | 2 nM | 2 nM |
| COc1cc(CNC2CCCCC2)ccc1Nc1ncc(C(F)(F)F)c(NCc2ccc(C)cc2N(C)S(C)(=O)=O)n1 [Example 109] | 2 nM | 2 nM |
| COc1cc(C(=O)NC2CCN(C)CC2)ccc1Nc1ncc(C(F)(F)F)c(NCc2ccc(Cl)cc2N(C)S(C)(=O)=O)n1 [Example 111] | 3 nM | 1 nM |
| COc1cc(N2CCN(C3CCN(C)CC3)CC2)ccc1Nc1ncc(C(F)(F)F)c(NCc2ccc(C)cc2N(C)S(C)(=O)=O)n1 [Example 112] | 3 nM | 2 nM |

More lines, now with the values ahead:

| EC50 [1] | IC50 [2] | SMILES |
| --- | --- | --- |
| 3 nM | 5 nM | COc1cc(C(=O)NC(C)(C)C)c(F)cc1Nc1ncc(C(F)(F)F)c(NCc2ccc(C)cc2N(C)S(C)(=O)=O)n1 [Example 113] |
| 3 nM | 4 nM | COc1cc(C(=O)N[C@H]2CC[C@H](N3C[C@@H](C)O[C@@H](C)C3)CC2)ccc1Nc1ncc(C(F)(F)F)c(NCc2ccc(C)cc2N(C)S(C)(=O)=O)n1 [Example 114] |
| 3 nM | 5 nM | CCCNC(=O)c1ccc(Nc2ncc(C(F)(F)F)c(NCc3ccc(F)cc3N(C)S(C)(=O)=O)n2)c(OC)c1 [Example 115] |
| 3 nM | 3 nM | COc1cc(C(=O)N[C@@H]2CCCN(C3COC3)C2)ccc1Nc1ncc(C(F)(F)F)c(NCc2ccc(C)cc2N(C)S(C)(=O)=O)n1 [Example 116] |
| 3 nM | 0.85 nM | CC(=O)Nc1ccc(Nc2ncc(C(F)(F)F)c(NCc3ccc(C)cc3N(C)S(C)(=O)=O)n2)cc1C [Example 117] |
| 3 nM | 1 nM | COc1ccc(CNc2nc(Nc3ccc(NC(C)=O)c(C)c3)ncc2C(F)(F)F)c(N(C)S(C)(=O)=O)c1 [Example 118] |
| 3 nM | 3 nM | COc1cc(C(=O)N[C@H]2CCN(C)C[C@H]2F)ccc1Nc1ncc(C(F)(F)F)c(NCc2ccc(C)cc2N(C)S(C)(=O)=O)n1 [Example 119] |
| 3 nM | 3 nM | COc1cc(C(=O)N[C@H]2CCN(C)C2)c(Cl)cc1Nc1ncc(C(F)(F)F)c(NCc2ccc(C)cc2N(C)S(C)(=O)=O)n1 [Example 120] |
| 3 nM | 2 nM | CCc1cc(C(=O)NC)ccc1Nc1ncc(C(F)(F)F)c(NCc2ccc(C)cc2N(C)S(C)(=O)=O)n1 [Example 121] |
| 3 nM | 2 nM | CCc1cc(C(=O)NOC)ccc1Nc1ncc(C(F)(F)F)c(NCc2ccc(C)cc2N(C)S(C)(=O)=O)n1 [Example 122] |
| 3 nM | 9 nM | COc1cc(C(=O)N(C)C)c(C)cc1Nc1ncc(C(F)(F)F)c(NCc2ccc(C)cc2N(C)S(C)(=O)=O)n1 [Example 123] |
| 3 nM | 5 nM | COC(=O)Nc1cc(OC)c(Nc2ncc(C(F)(F)F)c(NCc3ccc(C)cc3N(C)S(C)(=O)=O)n2)cc1C [Example 124] |
| 3 nM | 5 nM | COC(=O)Nc1cc(OC)c(Nc2ncc(C(F)(F)F)c(NCc3ccc(OC)cc3N(C)S(C)(=O)=O)n2)cc1C [Example 125] |
| 3 nM | 6 nM | COC(=O)Nc1cc(OC)c(Nc2ncc(C(F)(F)F)c(NCc3ccc(F)cc3N(C)S(C)(=O)=O)n2)cc1C [Example 126] |
